According to patent US9302999B2, “Substituted triazoles as herbicides” (E. I. DU PONT DE NEMOURS AND COMPANY, priority 2012, dated 2016):

How the values were obtained:
Assay type in all cases: in vivo
[1] = system: field poppy (Papaver rhoeas); experiment: Test D pre-/postemergence: field poppy
Outline: (§1)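 Visual ratings from 0 (no effect) to 100 (complete control) were made 14–21 days after treatment, relative to controls. Applications were preemergence to seeds in silt loam, or postemergence to 2–18 cm (1–4 leaf) plants in peat-based medium. Compounds were formulated in a surfactant-containing non-phytotoxic solvent.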

[2] = system: field violet (Viola arvensis); experiment: Test D pre-/postemergence: field violet
Outline: as §1

[3] = system: speedwell (bird's-eye speedwell, Veronica persica); experiment: Test D pre-/postemergence: speedwell; conditions: Preemergence
Outline: as §1

[4] = system: windgrass (Apera spica-venti); experiment: Test D pre-/postemergence: windgrass
Outline: as §1

[5] = system: barley, winter (winter barley, Hordeum vulgare); experiment: Test D pre-/postemergence: barley, winter
Outline: as §1

[6] = system: velvetleaf (Abutilon theophrasti); experiment: Test F pre-/postemergence: velvetleaf; conditions: Preemergence
Outline: (§2)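 Seeds were sown in silt loam soil and sprayed preemergence with test chemical in a non-phytotoxic solvent mixture containing surfactant; postemergence treatments went onto plants 2 to 18 cm tall (1- to 4-leaf stage) grown in peat moss/vermiculite medium. After 14 to 21 days in a greenhouse, injury was rated visually against controls, 0 (no effect) to 100 (complete control).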

[7] = system: waterhemp (common waterhemp, Amaranthus rudis); experiment: Test F pre-/postemergence: waterhemp; conditions: Preemergence
Outline: as §2

[8] = system: field bindweed (Convolvulus arvensis); experiment: Test F pre-/postemergence: field bindweed
Outline: as §2

[9] = system: cocklebur (common cocklebur, Xanthium strumarium); experiment: Test F pre-/postemergence: cocklebur; conditions: Preemergence
Outline: as §2

[10] = system: nutsedge, yellow (yellow nutsedge, Cyperus esculentus); experiment: Test F pre-/postemergence: nutsedge, yellow; conditions: Preemergence
Outline: as §2

[11] = Postemergence, 31 g ai/ha, scale 0 to 100 (0 no effect, 100 complete control)
[12] = Postemergence, 62 g ai/ha, scale 0 to 100 (0 no effect, 100 complete control)
[13] = Postemergence, 125 g ai/ha, scale 0 to 100, 0 no effect, 100 complete control
[14] = Postemergence, 16 g ai/ha, scale 0 to 100
[15] = Preemergence, 16 g ai/ha, scale 0 to 100, 0 no effect, 100 complete control
[16] = Preemergence, 31 g ai/ha, scale 0 to 100, 0 no effect, 100 complete control
[17] = Preemergence, 62 g ai/ha, scale 0 to 100
[18] = Preemergence, 125 g ai/ha, scale 0 to 100
[19] = 16 g ai/ha, scale 0 to 100, 0 no effect, 100 complete control
[20] = 31 g ai/ha, scale 0 to 100, 0 no effect, 100 complete control
[21] = Postemergence, 31 g ai/ha, scale 0 to 100
[22] = 8 g ai/ha, scale 0 to 100, 0 no effect, 100 complete control

CCOc1nn(-c2ccc(F)cc2)nc1Cc1ccnc(C(F)(F)F)c1 [Compound 196, 4-[[5-ethoxy-2-(4-fluorophenyl)-2H-1,2,3-triazol-4-yl]methyl]-2-(trifluoromethyl)pyridine]
98: Plant response rating, Waterhemp [7, 20]
15: Plant response rating, Barley, Winter [5, 14] | Plant response rating, Barley, Winter [5, 17]
10: Plant response rating, Barley, Winter [5, 16] | Plant response rating, Velvetleaf [6, 19]
95: Plant response rating, Field Poppy [1, 15] | Plant response rating: Field Violet [2, 12] | Plant response rating, Field Violet [2, 16] | Plant response rating: Windgrass [4, 12] | Plant response rating: Windgrass [4, 13] | Plant response rating, Velvetleaf ([6]; 125 g ai/ha, scale 0 to 100) | Plant response rating, Waterhemp [7, 19]
20: Plant response rating, Windgrass [4, 15] | Plant response rating: Barley, Winter [5, 11] | Plant response rating, Velvetleaf [6, 20]
0: Plant response rating, Velvetleaf [6, 22] | Plant response rating, Field Bindweed ([8]; Preemergence, 8 g ai/ha, scale 0 to 100, 0 no effect, 100 complete control) | Plant response rating, Field Bindweed [8, 15] | Plant response rating, Cocklebur [9, 20] | Plant response rating, Cocklebur ([9]; 62 g ai/ha, scale 0 to 100) | Plant response rating, Cocklebur ([9]; 125 g ai/ha, scale 0 to 100) | Plant response rating, Nutsedge, Yellow [10, 22] | Plant response rating, Nutsedge, Yellow [10, 19] | Plant response rating, Nutsedge, Yellow [10, 20]
70: Plant response rating, Field Bindweed [8, 21]
40: Plant response rating: Barley, Winter [5, 13] | Plant response rating, Barley, Winter [5, 18]
5: Plant response rating, Speedwell [3, 19] | Plant response rating, Barley, Winter [5, 15]
90: Plant response rating, Field Poppy [1, 16]
50: Plant response rating, Waterhemp [7, 22] | Plant response rating, Field Bindweed ([8]; Postemergence, 8 g ai/ha, scale 0 to 100)
85: Plant response rating: Field Violet [2, 11]
35: Plant response rating: Barley, Winter [5, 12]
80: Plant response rating, Field Violet [2, 14] | Plant response rating, Field Violet [2, 15]
75: Plant response rating, Windgrass [4, 21] | Plant response rating, Field Bindweed ([8]; Postemergence, 62 g ai/ha, scale 0 to 100) | Plant response rating, Field Bindweed ([8]; Postemergence, 125 g ai/ha, scale 0 to 100) | Plant response rating, Nutsedge, Yellow ([10]; 125 g ai/ha, scale 0 to 100)
25: Plant response rating, Field Bindweed [8, 16]
60: Plant response rating, Windgrass [4, 14] | Plant response rating, Field Bindweed [8, 14]
65: Plant response rating, Field Bindweed [8, 18]
100: Plant response rating: Field Poppy [1, 11] | Plant response rating: Field Poppy [1, 12] | Plant response rating: Field Poppy [1, 13] | Plant response rating, Field Poppy [1, 14] | Plant response rating, Field Poppy [1, 17] | Plant response rating, Field Poppy [1, 18] | Plant response rating: Field Violet [2, 13] | Plant response rating, Field Violet [2, 17] | Plant response rating, Field Violet [2, 18] | Plant response rating, Speedwell [3, 20] | Plant response rating, Speedwell ([3]; 62 g ai/ha, scale 0 to 100) | Plant response rating, Speedwell ([3]; 125 g ai/ha, scale 0 to 100) | Plant response rating, Windgrass [4, 16] | Plant response rating, Windgrass [4, 17] | Plant response rating, Windgrass [4, 18] | Plant response rating, Waterhemp ([7]; 125 g ai/ha, scale 0 to 100)

Cc1nn(-c2ccc(C(F)(F)F)c(F)c2)nc1Oc1ccnc(C(F)(F)F)c1 [Compound 148]
10: Plant response rating, Field Poppy [1, 15] | Plant response rating, Windgrass [4, 16] | Plant response rating, Barley, Winter [5, 14]
15: Plant response rating, Windgrass [4, 14]
90: Plant response rating, Field Poppy [1, 14] | Plant response rating, Field Violet [2, 14] | Plant response rating, Field Violet [2, 15] | Plant response rating, Windgrass [4, 18] | Plant response rating, Waterhemp [7, 20]
5: Plant response rating, Speedwell [3, 19] | Plant response rating, Windgrass [4, 15] | Plant response rating, Barley, Winter [5, 17] | Plant response rating, Barley, Winter [5, 18]
50: Plant response rating, Speedwell ([3]; 62 g ai/ha, scale 0 to 100) | Plant response rating, Field Bindweed ([8]; Preemergence, 250 g ai/ha, scale 0 to 100)
20: Plant response rating: Barley, Winter [5, 11] | Plant response rating, Field Bindweed [8, 18] | Plant response rating, Nutsedge, Yellow ([10]; 125 g ai/ha, scale 0 to 100)
100: Plant response rating: Field Poppy [1, 11] | Plant response rating: Field Poppy [1, 13] | Plant response rating, Field Poppy [1, 17] | Plant response rating, Field Violet [2, 16] | Plant response rating, Field Violet [2, 18] | Plant response rating, Speedwell ([3]; 125 g ai/ha, scale 0 to 100) | Plant response rating, Waterhemp ([7]; 125 g ai/ha, scale 0 to 100) | Plant response rating, Waterhemp ([7]; 250 g ai/ha, scale 0 to 100)
0: Plant response rating, Barley, Winter [5, 15] | Plant response rating, Barley, Winter [5, 16] | Plant response rating, Velvetleaf [6, 19] | Plant response rating, Velvetleaf [6, 20] | Plant response rating, Field Bindweed [8, 15] | Plant response rating, Field Bindweed [8, 16] | Plant response rating, Field Bindweed [8, 17] | Plant response rating, Cocklebur [9, 20] | Plant response rating, Cocklebur ([9]; 125 g ai/ha, scale 0 to 100) | Plant response rating, Nutsedge, Yellow [10, 19] | Plant response rating, Nutsedge, Yellow [10, 20]
70: Plant response rating, Field Poppy [1, 16]
60: Plant response rating: Windgrass [4, 12]
30: Plant response rating, Windgrass [4, 21] | Plant response rating: Barley, Winter [5, 13] | Plant response rating, Waterhemp [7, 19]
35: Plant response rating, Windgrass [4, 17] | Plant response rating, Nutsedge, Yellow ([10]; 250 g ai/ha, scale 0 to 100)
95: Plant response rating: Field Poppy [1, 12] | Plant response rating, Field Poppy [1, 18] | Plant response rating: Field Violet [2, 11] | Plant response rating: Field Violet [2, 12] | Plant response rating: Field Violet [2, 13] | Plant response rating, Field Violet [2, 17] | Plant response rating, Speedwell [3, 20]
80: Plant response rating: Windgrass [4, 13]
25: Plant response rating: Barley, Winter [5, 12] | Plant response rating, Velvetleaf ([6]; 125 g ai/ha, scale 0 to 100)
65: Plant response rating, Velvetleaf ([6]; 250 g ai/ha, scale 0 to 100)
